Data on four molecules can be found in patent publication US12678448B2, “Polymeric carriers for delivery of therapeutic agents” (priority 2020, dated 2026).

Entries after “also recorded” stand apart in the source; their conditions may differ.

In data set [1] the test system is PGE2. Briefly: inhibition of PGE2 production by 5-ASA. The format is cell-based. The settings on record: 5-ASA concentration 1 mM; read-out: production of PGE2 inhibited. The protocol:
(§1) Prostaglandin E2 level analysis. To analyze the levels of prostaglandin E2 (PGE2) production in different cell lines, the cell culture mediums were collected after overnight incubation. To test PGE2 in the tumor tissues, the harvested tumors were homogenized, and the supernatants were obtained after centrifugation. PGE2 in the supernatants was detected using Abcam Prostaglandin E2 ELISA Kit.

The subject of data set [2] is 4T1.2, CT26, MDA-MB-468 and HCT116 tumor cell lines. Briefly: MTT cytotoxicity of free 5-ASA, DOX and combination, 48 h. The note with it: 5-ASA 0~1 mM, all four cell lines. The format is cell-based, murine, human. Here is the method: In vitro cytotoxicity. […] Cells were seeded in 96-well plates at a density of 5×10^3 cells/well with 100 μL of complete culture medium (DMEM or RPMI 1640 with 10% FBS and 1% streptomycin/penicillin). […] The absorbances of each well were measured at 590 nm and the cell viability was determined via the following formula: (ODtreated−ODblank)/(ODcontrol−ODblank)×100%.

Data set [3] has as its system PGE2 in CT26 tumor tissue. Description: PGE2 level in tumor tissue, ELISA. On the set-up: species or system BALB/c mice. The note with it: mouse, in vivo. Here is the method:
as §1
For orientation: In an ELISA, binding on a coated surface is turned into a signal by an enzyme label.

The subject of data set [4] is esophageal squamous cell carcinoma. The settings on record: cited from earlier work.
Data set [5] relates to 4T1.2 tumor. Set-up: species or system mice. The note with it: mouse, in vivo, iv. The protocol: Tissue biodistribution. […] The mice were sacrificed and perfused at 24 h post injection. Tumors and major organs including heart, liver, spleen, lung and kidney were sectioned and observed under the fluorescence microscope (BZ-X710, Japan).
The test system of data set [6] is 4T1.2 tumor. Briefly: in vivo therapeutic study, syngeneic breast cancer model. The note with it: 4T1.2 model, treatments on day 0, 3, 6, i.v. On the set-up: species or system BALB/c mice. An excerpt: In vivo therapeutic study. […] Female BALB/c mice (4-6 weeks) were s.c. inoculated with 4T1.2 or CT26 cells (5×10^5 cells per mouse). […] Tumor sizes were monitored every three days following the initiation of the treatment and calculated by the formula: (Length×Width^2)/2. Body weights were also followed as an indication of toxicity. After completion of the experiment, tumor and major organs were collected for hematoxylin and eosin (H&E) staining. Blood samples were collected for biochemical analysis of alanine transaminase (ALT) and aspartate aminotransferase (AST).

A short description of data set [7]: in vitro DOX release by dialysis. The note with it: free drug control. It is filed as physicochemical. Here is the method:
In vitro drug release. The release of DOX from DOX-loaded PASA and FASA micelles at different pH was studied using a dialysis method. Briefly, 2 mL of PASA/DOX and FASA/DOX micelles containing 1 mg of DOX and 10 mg of polymer were placed in a dialysis bag (MWCO 3.5 kDa) and immersed into 40 mL of 0.1 M PBS solution containing 0.5% (w/v) Tween 80 at pH 5 and pH 7.4. The experiment was performed in an incubation shaker at 37° C. at 100 rpm. At selected time intervals, 10 μL solution in the dialysis bag and 1 mL medium outside the dialysis bag were withdrawn while same amount of fresh dialysis solution was added for replenishment. The concentration of DOX was examined by fluorescence spectrometry (excitation, 480 nm; emission, 510 to 620 nm). Free DOX was included as control.

Data set [8] has as its system KB cells. Description: cellular uptake, fluorescence microscopy and flow cytometry. It is filed as cell-based, human. Here is the method: Cellular uptake study. KB, 4T1.2, CT26, MDA-MB-468, HCT116 tumor cells and M2 macrophages were seeded to 6-well plates (3×10^5/well), respectively. After overnight incubation, the culture medium was replaced by fresh medium containing free DOX, PASA/DOX and FASA/DOX micelles with or without 100 μM free folate, respectively, at an equivalent DOX concentration of 6 μg/mL (carrier/DOX ratio: 10/1 (w/w)). After incubation for 30 min at 37° C., cells were washed with cold PBS and fixed with PBS containing 4% (w/v) formaldehyde. Nuclei were then stained by DAPI for 5 min. Cells were washed with cold PBS and observed under fluorescence microscope (BZ-X710, Japan).
Cellular uptake of different DOX formulations was also quantified by flow cytometry. KB tumor cells seeded in 6-well plates (3×10^5/well) were treated with various DOX formulations as described above at a DOX concentration of 6 μg/mL. Following incubation at 37° C. for 30 min, cells were washed with cold PBS, fixed in PBS containing 4% (w/v) formaldehyde, and resuspended in 500 μL PBS for flow cytometry analysis with CyAn ADP Analyzer (Beckman Coulter, Inc.). Fluorescence was examined at an excitation wavelength of 480 nm and an emission wavelength of 570 nm. 2×10^4 events were collected for each sample.
For orientation: A flow cytometer gives signals particle by particle.

A short description of data set [9]: toxicity evaluation (body weight, AST/ALT, histology). It is filed as in vivo, mice. Here is the method: In vivo therapeutic study. In vivo antitumor efficacy of DOX-loaded PASA and FASA micelles was tested in syngeneic 4T1.2 mouse breast cancer model and CT26 mouse colon cancer model, respectively. Female BALB/c mice (4-6 weeks) were s.c. inoculated with 4T1.2 or CT26 cells (5×10^5 cells per mouse). When the tumor volume reached ~50 mm^3, mice were randomly divided into eight groups (n=5), and treated via tail vein injection with PBS, DOX, 5-ASA+DOX, Doxil, blank PASA micelles, blank FASA micelles, DOX-loaded PASA micelles or DOX-loaded FASA micelles, respectively once every three days for three times (polymer: 50 mg/kg, DOX: 5 mg/kg, 5-ASA: 20 mg/kg). Tumor sizes were monitored every three days following the initiation of the treatment and calculated by the formula: (Length×Width^2)/2. Body weights were also followed as an indication of toxicity. After completion of the experiment, tumor and major organs were collected for hematoxylin and eosin (H&E) staining. Blood samples were collected for biochemical analysis of alanine transaminase (ALT) and aspartate aminotransferase (AST).
Histopathological Analysis. Tumors and major organs including heart, liver, spleen, lung and kidney were excised and fixed in PBS containing 10% formaldehyde after completion of the in vivo therapy study, followed by embedment in paraffin. The paraffin embedded samples were sectioned into slices at 4 μm using an HM 325 Rotary Microtome. The tissue slices were then subjected to H&E staining for histopathological examination under a Zeiss Axiostar plus Microscope (PA, USA).
ALT and AST assessment. Mouse serum was obtained for blood biochemical assessment. ALT and AST were measured by ALT/SGPT or […] liqui-UV assay kit following manufacturer's protocols.

For data set [10], the system named is KB cells. Description: MTT cytotoxicity of DOX formulations, 30 min treatment then 48 h. The note with it: FASA up to 200 μg/mL. The format is cell-based, human. The protocol: In vitro cytotoxicity. Cytotoxicity assay was performed on different cancer cell lines (KB, 4T1.2, CT26, MDA-MB-468 and HCT116). Cells were seeded in 96-well plates at a density of 5×10^3 cells/well with 100 μL of complete culture medium (DMEM or RPMI 1640 with 10% FBS and 1% streptomycin/penicillin).
The cytotoxicity of PASA/DOX and FASA/DOX at a carrier/DOX ratio of 10/1 (w/w) were compared to free DOX and Doxil at various DOX concentrations. FASA control was added to cells at concentrations equivalent to the amounts of carrier in the corresponding DOX formulations. In order to confirm folate-mediated active targeting, free folate (100 μM) was added along with the FASA/DOX micelles. Cells were incubated for 30 min in drug-containing medium and then cultured for another 48 h in fresh medium prior to MTT assay.

In data set [11] the test system is endometrial cancer cells. The note with it: cited from earlier work.

Regarding `Nc1ccc(O)c(C(=O)O)c1` [5-ASA, 5-aminosalicylic acid], the inhibition at 1000 µM in data set [1] was 80%. In data set [2], the “anti-proliferation effect / cytotoxicity” value is recorded as “did not show any significant anti-proliferation effect; also recorded: minimal cytotoxicity”. In addition, the “level of PGE2 in CT26 tumor tissue” value in [3] is reported as “minimal effect”.
`Cc1ccc(-c2cc(C(F)(F)F)nn2-c2ccc(S(N)(=O)=O)cc2)cc1` [Celecoxib]: in [4], the “effect on 5-FU antitumor effects” value was “enhances 5-Fluorouracil (5-FU) antitumor effects”.
Regarding `COc1cccc2c1C(=O)c1c(O)c3c(c(O)c1C2=O)C[C@@](O)(C(=O)CO)C[C@@H]3O[C@H]1C[C@H](N)[C@H](O)[C@H](C)O1` [DOX, doxorubicin], the “DOX fluorescence signals in tumor tissues” value in data set [5] is “low level and scattered DOX fluorescence signals”. In addition, in data set [6], the “antitumor activity (tumor growth)” value is given as “modest antitumor activity”. Also, the “diffusion across the dialysis membrane” value in data set [7] is on record as “rapidly diffused across the dialysis membrane”. The cellular uptake entry in data set [8] (30 min, DOX 6 μg/mL) is “efficiently taken up”. In addition, the “effect of free folate on cellular uptake” value in data set [8] (excess free folate 100 μM) is “no effect”. For the same molecule, in [9] (mouse, in vivo), the body weights result is “slight decrease in body weights on day 9” and the liver histology result is “hepatocellular vacuolation was found”. Also, in data set [9] (versus control group), the “serum levels of AST / ALT” value is “significantly higher than those in the control group”. Further, in data set [10], the “cytotoxicity (inhibition of cell proliferation)” value is “inhibited the cell proliferation in a dose-dependent manner”.
On to `CCc1cccc2c3c([nH]c12)C(CC)(CC(=O)O)OCC3` (centres unmarked) [Etodolac], for which, in data set [11], the “inhibition of cancer cells” value is on record as “dose dependent inhibition of endometrial cancer cells”.
